Assay results published in PubChem BioAssay AID330 (DTP/NCI, 2004).
Values joined by “and” are separate entries in the source; they are usually repeats but may differ in a detail not shown here. Equal entries are not always repeated. Toxic doses and inconclusive results are not listed. The calls were made as follows: active = survival T/C of 150% or more; inactive = T/C below 125% in these data.

Test system: P388 leukemia ip, CD2F1 mice, survival T/C
Experiment: NCI In Vivo Anticancer Drug Screen. Data for tumor model P388 Leukemia (intraperitoneal) in CD2F1 (CDF1) mice
Settings: endpoint: median survival time, higher = longer survival
Summary of the method: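 Mice carrying the transplanted tumor received test compound or vehicle. Survival was recorded in each group, and the value is the treated-group measurement divided by that of the vehicle-treated control group.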

[1] = dose: 50.0 mg/kg/injection, schedule: Q01DX009 (ip), vehicle: saline
[2] = dose: 100.0 mg/kg/injection, schedule: Q01DX009 (ip), vehicle: saline
[3] = dose: 200.0 mg/kg/injection, schedule: Q01DX009 (ip), vehicle: saline
[4] = dose: 100.0 mg/kg/injection, schedule: Q01DX009 (ip), vehicle: saline with Tween-80
[5] = dose: 200.0 mg/kg/injection, schedule: Q01DX009 (ip), vehicle: saline with Tween-80
[6] = dose: 400.0 mg/kg/injection, schedule: Q01DX009 (ip), vehicle: saline with Tween-80
[7] = dose: 12.5 mg/kg/injection, schedule: Q01DX009 (ip), vehicle: saline with Tween-80
[8] = dose: 25.0 mg/kg/injection, schedule: Q01DX009 (ip), vehicle: saline with Tween-80
[9] = dose: 50.0 mg/kg/injection, schedule: Q01DX009 (ip), vehicle: saline with Tween-80
[10] = dose: 60.0 mg/kg/injection, schedule: Q01DX005 (ip), vehicle: saline with Tween-80
[11] = dose: 120.0 mg/kg/injection, schedule: Q01DX005 (ip), vehicle: saline with Tween-80
[12] = dose: 240.0 mg/kg/injection, schedule: Q01DX005 (ip), vehicle: saline with Tween-80
[13] = dose: 50.0 mg/kg/injection, schedule: Q01DX005 (ip), vehicle: Klucel (hydroxypropylcellulose) (HPC)
[14] = dose: 100.0 mg/kg/injection, schedule: Q01DX005 (ip), vehicle: Klucel (hydroxypropylcellulose) (HPC)
[15] = dose: 200.0 mg/kg/injection, schedule: Q01DX005 (ip), vehicle: Klucel (hydroxypropylcellulose) (HPC)
[16] = dose: 100.0 mg/kg/injection, schedule: Q04DX003 (ip), vehicle: saline with Tween-80
[17] = dose: 200.0 mg/kg/injection, schedule: Q04DX003 (ip), vehicle: saline with Tween-80
[18] = dose: 50.0 mg/kg/injection, schedule: Q01DX005 (ip), vehicle: saline with Tween-80
[19] = dose: 100.0 mg/kg/injection, schedule: Q01DX005 (ip), vehicle: saline with Tween-80
[20] = dose: 200.0 mg/kg/injection, schedule: Q01DX005 (ip), vehicle: saline with Tween-80
[21] = dose: 50.0 mg/kg/injection, schedule: Q01DX009 (ip), vehicle: water
[22] = dose: 100.0 mg/kg/injection, schedule: Q01DX009 (ip), vehicle: water
[23] = dose: 200.0 mg/kg/injection, schedule: Q01DX009 (ip), vehicle: water
[24] = dose: 100.0 mg/kg/injection, schedule: Q04DX003 (ip), vehicle: saline sonified
[25] = dose: 200.0 mg/kg/injection, schedule: Q04DX003 (ip), vehicle: saline sonified
[26] = dose: 264.0 mg/kg/injection, schedule: Q04DX003 (ip), vehicle: saline with Tween-80

Measured: T/C

NCCCCC1(CCCCN)OCCO1
inactive: dose: 12.5 mg/kg/injection, schedule: Q01DX009 (ip), vehicle: saline 95 % of control | dose: 25.0 mg/kg/injection, schedule: Q01DX009 (ip), vehicle: saline 95 % of control | [1] 100 % of control

CS(=O)(=O)OC[C@@H](O)[C@@H](O)COS(C)(=O)=O
inactive: [1] 112 % of control | dose: 100.0 mg/kg/injection, schedule: Q01DX009 (ip), vehicle: saline sonified 110 % of control | [2] 99 % of control | dose: 200.0 mg/kg/injection, schedule: Q01DX009 (ip), vehicle: saline sonified 100 % of control | [3] 99 % of control | dose: 400.0 mg/kg/injection, schedule: Q01DX009 (ip), vehicle: saline sonified 100 % of control

CCOC(=O)c1ccc(NC(=S)Nc2ccc(C(=O)OCC)cc2)cc1
inactive: [4] 90 % of control | [5] 90 % of control | [6] 90 % of control

O=C(C[n+]1ccccc1)N/N=C/c1cccc([N+](=O)[O-])c1
inactive: [7] 102 % of control | [8] 99 % of control | [9] 103 % of control

Cc1nc(Br)c(Br)n1Cc1ccccc1
inactive: [10] 99 % of control | [11] 99 % of control | [12] 105 % of control

CC(C)=CC(=O)O
inactive: [9] 99 % of control | [4] 101 % of control | [5] 100 % of control | [6] 90 % of control

Cc1ccc2nc(NC(=S)NCCCCCCNC(=S)Nc3ccc4cc(C)ccc4n3)ccc2c1
inactive: dose: 50.0 mg/kg/injection, schedule: Q01DX009 (ip), vehicle: Klucel (hydroxypropylcellulose) (HPC) 93 % of control | dose: 100.0 mg/kg/injection, schedule: Q01DX009 (ip), vehicle: Klucel (hydroxypropylcellulose) (HPC) 93 % of control

CCOC([O-])=N/C(C)=N/[n+]1ccccc1C
inactive: [1] 107 % of control | [2] 104 % of control | [3] 107 % of control

CC12CCC(=O)C=C1C=CC1C2CCC2(C)C1CCC21CCC(=O)O1 (stereo not drawn)
inactive: [9] 94 % of control | [4] 91 % of control | [5] 97 % of control

COc1ccc(Cc2nnc(SC)n2-c2ccc(F)cc2)cc1OC
inactive: [10] 102 % of control | [11] 95 % of control | [12] 102 % of control

O=C1CCc2cc([N+](=O)[O-])cc3c2N1CCC3
inactive: [13] 95 % of control and 96 % of control | [14] 104 % of control | [15] 98 % of control and 96 % of control

COc1ccc(C(c2cc3c(cc2O)OCO3)N2CCOCC2)cc1OC (stereo not drawn)
inactive: [10] 101 % of control | [11] 109 % of control | [12] 111 % of control

COC(=O)CCN(CCC(=O)OC)Cc1ccccc1
inactive: dose: 50.0 mg/kg/injection, schedule: Q04DX003 (ip), vehicle: saline with Tween-80 101 % of control | [16] 100 % of control | [17] 100 % of control

CCCCCOc1ccc(C(=O)Oc2ccc(N=Nc3nccs3)cc2)cc1
inactive: [18] 98 % of control | [19] 101 % of control | [20] 96 % of control

COc1ccc(CCNc2ccc(OC)c(OC)c2)cc1OC
inactive: dose: 12.5 mg/kg/injection, schedule: Q01DX009 (ip), vehicle: water 91 % of control | dose: 25.0 mg/kg/injection, schedule: Q01DX009 (ip), vehicle: water 98 % of control | [21] 100 % of control | [22] 95 % of control | [23] 90 % of control

C=CCc1ccccc1NC(C)C(=O)OCC (stereo not drawn)
inactive: [18] 107 % of control | [19] 107 % of control | [20] 107 % of control

CC(=O)OCC(=O)[C@@]1(O)CC[C@H]2[C@@H]3C[C@@H](C)C4=CC(=O)C=C[C@]4(C)[C@H]3[C@@H](O)C[C@@]21C
inactive: [4] 100 % of control | [5] 100 % of control | [6] 100 % of control

Cc1ccc(S(=O)(=O)NC(=O)Nc2ccccc2SC2CCc3ccccc32)cc1 (stereo not drawn)
inactive: [13] 105 % of control | [14] 108 % of control | [15] 102 % of control

CCOC(=O)C1CSC(c2ccccc2)=N1 (stereo not drawn)
inactive: [10] 109 % of control | [11] 111 % of control | [12] 111 % of control

CC1(C)CO[Se](=O)OC1
inactive: dose: 3.13 mg/kg/injection, schedule: Q01DX009 (ip), vehicle: saline 114 % of control

CN1C2Cc3cc4c(cc3[C@@]23Cc2ccc5c(c2[C@@H]1O3)OCO5)OCO4 (stereo partly drawn)
inactive: dose: 8.0 mg/kg/injection, schedule: Q01DX005 (ip), vehicle: Klucel (hydroxypropylcellulose) (HPC) 94 % of control | dose: 16.0 mg/kg/injection, schedule: Q01DX005 (ip), vehicle: Klucel (hydroxypropylcellulose) (HPC) 109 % of control | dose: 32.0 mg/kg/injection, schedule: Q01DX005 (ip), vehicle: Klucel (hydroxypropylcellulose) (HPC) 94 % of control | dose: 64.0 mg/kg/injection, schedule: Q01DX005 (ip), vehicle: Klucel (hydroxypropylcellulose) (HPC) 98 % of control

CCC(C)C1NC(=O)C2C(CCN2C(=O)C(Cc2c[nH]c3ccccc23)NC(=O)C(CC(C)C)N(C)C)Oc2ccc(cc2)/C=C\NC1=O (stereo not drawn)
inactive: [16] 94 % of control | [17] 97 % of control

CCOC(=O)c1c(Cl)c(Cl)c(C(=O)OCC)c(Cl)c1Cl
inactive: [24] 100 % of control | [25] 100 % of control | dose: 400.0 mg/kg/injection, schedule: Q04DX003 (ip), vehicle: saline sonified 100 % of control

C[C@@H]1CN(C(=O)CCOS(C)(=O)=O)[C@@H](C)CN1C(=O)CCOS(C)(=O)=O
inactive: dose: 3.13 mg/kg/injection, schedule: Q04DX003 (ip), vehicle: saline 113 % of control | dose: 6.25 mg/kg/injection, schedule: Q04DX003 (ip), vehicle: saline 122 % of control | dose: 400.0 mg/kg/injection, schedule: Q04DX003 (ip), vehicle: saline with Tween-80 118 % of control
active: [26] 218 % of control

COc1cccc2c1C(=O)c1c(O)c3c(c(O)c1C2=O)C[C@@](O)(C(=O)CSC(=O)c1ccccc1)C[C@@H]3OC1CC(N)C(O)C(C)O1 (stereo partly drawn)
inactive: dose: 25.0 mg/kg/injection, schedule: Q01DX001 (ip), vehicle: water 123 % of control | dose: 50.0 mg/kg/injection, schedule: Q01DX001 (ip), vehicle: water 109 % of control

Cc1ccc2nc(N(C)C)nc-2c2[nH]c(=O)[nH]c12
inactive: dose: 8.25 mg/kg/injection, schedule: Q01DX005 (ip), vehicle: saline 110 % of control | dose: 16.5 mg/kg/injection, schedule: Q01DX005 (ip), vehicle: saline 110 % of control | dose: 33.0 mg/kg/injection, schedule: Q01DX005 (ip), vehicle: saline 107 % of control | dose: 66.0 mg/kg/injection, schedule: Q01DX005 (ip), vehicle: saline 102 % of control

COc1c(C)c(=O)n2c3ccccc3n(C)c2c1C#N
inactive: [10] 103 % of control | [11] 107 % of control | [12] 99 % of control

COC(=O)NC1CC(C2CO2)OC1=O (stereo not drawn)
inactive: dose: 50.0 mg/kg/injection, schedule: Q01DX005 (ip), vehicle: saline 101 % of control | dose: 100.0 mg/kg/injection, schedule: Q01DX005 (ip), vehicle: saline 99 % of control | dose: 200.0 mg/kg/injection, schedule: Q01DX005 (ip), vehicle: saline 109 % of control

COc1cc2c(cc1OC)-c1cc(C)c3cc(OC)c(OC)cc3[n+]1CC2
inactive: [21] 111 % of control | [22] 110 % of control | [23] 117 % of control

c1cc(OCC2CO2)ccc1OCC1CO1 (stereo not drawn)
inactive: [7] 95 % of control | [8] 96 % of control | [9] 113 % of control | [4] 108 % of control and 111 % of control | [24] 100 % of control | [5] 108 % of control | [25] 104 % of control | [26] 118 % of control | [6] 112 % of control | dose: 600.0 mg/kg/injection, schedule: Q04DX003 (ip), vehicle: saline with Tween-80 113 % of control

N=C(N)c1ccc2cc(/C=C/c3cc4ccc(C(=N)N)cc4o3)[nH]c2c1
active: dose: 50.0 mg/kg/injection, schedule: Q04DX003 (ip), vehicle: saline 157 % of control | dose: 50.0 mg/kg/injection, schedule: Q04DX003 (ip), vehicle: suspension in saline 208 % of control
